Laboratory results reported in article PMC6001238, “Iterative Chemical Engineering of Vancomycin Leads to Novel Vancomycin Analogs With a High in Vitro Therapeutic Index” (Frontiers in Microbiology, 2018).
In brackets after ≈: the same amount, converted by molar mass.

Assays:
E. faecalis VSE 1 = assay: MIC, broth microdilution, vancomycin-sensitive E. faecalis (VSE 1); format: cell-based, Enterococcus faecalis; settings: for MIC: Enterococcus faecalis VSE 1 (vancomycin-sensitive), read-out: MIC; for MIC-fold improvement vs. vancomycin: VSE 1, ratio of MIC of vancomycin and MIC of analogue
Procedure, shortened: (§1)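 Inhibitory concentrations were read by the CLSI broth microdilution procedure, with water and sterile broth as controls. One experiment added vancomycin (10 μM final) together with each analogue or reference antibiotic.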

S. aureus VISA/HIP5827 = assay: MIC, broth microdilution, vancomycin-intermediate S. aureus VISA HIP5827; format: cell-based, Staphylococcus aureus; settings: for MIC: Staphylococcus aureus VISA/HIP5827, read-out: MIC; for MIC-fold improvement vs. vancomycin: VISA/HIP5827, ratio of MIC of vancomycin and MIC of analogue
Procedure, shortened: as §1

E. faecalis VRE 29 = assay: MIC, broth microdilution, vancomycin-resistant E. faecalis VRE 29 (VanA); format: cell-based, Enterococcus faecalis; settings: for MIC: Enterococcus faecalis VRE 29 (vancomycin-resistant), read-out: MIC; for MIC-fold improvement vs. vancomycin: VRE 29, ratio of MIC of vancomycin and MIC of analogue
Procedure, shortened: as §1

[1] = system: Murine leukemia (L1210) cells; assay: Cytostatic activity, L1210 cell proliferation; format: cell-based; settings: mean ± SD of three experiments; highest concentration tested 250 µM; 2 days; read-out: Toxicity (IC50) L1210
Procedure, shortened: (§2)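 Coulter counter cell counts after 37°C culture with compound; IC50 = concentration giving 50% growth inhibition vs negative control. Incubation: L1210 2 d, CEM 3 d, HeLa 4 d. Suspension density before mixing with an equal volume of dilution: 300,000–500,000 cells/mL.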

MRSA KS1 = assay: MIC, broth microdilution, MRSA KS1; format: cell-based, Staphylococcus aureus; settings: for MIC-fold improvement vs. vancomycin: MRSA KS1, ratio of MIC of vancomycin and MIC of analogue; for MIC: Staphylococcus aureus MRSA KS1, read-out: MIC
Procedure, shortened: as §1

S. aureus VRSA = assay: MIC, broth microdilution, vancomycin-resistant S. aureus (VRSA); format: cell-based, Staphylococcus aureus; settings: for MIC: Staphylococcus aureus VRSA, read-out: MIC; for MIC-fold improvement vs. vancomycin: VRSA, ratio of MIC of vancomycin and MIC of analogue
Procedure, shortened: as §1

[2] = system: L1210, CEM and HeLa cell lines; assay: Cytostatic activity, average or summary over L1210, CEM and HeLa; format: cell-based; settings: average of L1210, CEM and HeLa; read-out: Toxicity (IC50) Average
Procedure, shortened: as §2

MRSA KS6 = assay: MIC, broth microdilution, MRSA KS6; format: cell-based, Staphylococcus aureus; settings: for MIC-fold improvement vs. vancomycin: MRSA KS6, ratio of MIC of vancomycin and MIC of analogue; for MIC: Staphylococcus aureus MRSA KS6, read-out: MIC
Procedure, shortened: as §1

E. faecalis VRE 53 = assay: MIC, broth microdilution, vancomycin-resistant E. faecalis VRE 53 (VanA); format: cell-based, Enterococcus faecalis; settings: for MIC: Enterococcus faecalis VRE 53 (vancomycin-resistant), read-out: MIC; for MIC-fold improvement vs. vancomycin: VRE 53, ratio of MIC of vancomycin and MIC of analogue
Procedure, shortened: as §1

MRSA KS89 = assay: MIC, broth microdilution, MRSA KS89; format: cell-based, Staphylococcus aureus; settings: for MIC-fold improvement vs. vancomycin: MRSA KS8, ratio of MIC of vancomycin and MIC of analogue; for MIC: Staphylococcus aureus MRSA KS8, read-out: MIC
Procedure, shortened: as §1

[3] = system: human cervix carcinoma (HeLa) cells; assay: Cytostatic activity, HeLa cell proliferation; format: cell-based; settings: mean ± SD of three experiments; highest concentration tested 250 µM; 4 days; read-out: Toxicity (IC50) HeLa
Procedure, shortened: as §2

[4] = system: human T-lymphocyte (CEM) cells; assay: Cytostatic activity, CEM cell proliferation; format: cell-based; settings: mean ± SD of three experiments; highest concentration tested 250 µM; 3 days; read-out: Toxicity (IC50) CEM
Procedure, shortened: as §2

E. faecalis VRE 37 = assay: MIC, broth microdilution, vancomycin-resistant E. faecalis VRE 37 (VanA); format: cell-based, Enterococcus faecalis; settings: for MIC: Enterococcus faecalis VRE 37 (vancomycin-resistant), read-out: MIC
Procedure, shortened: as §1

MRSA KS2 = assay: MIC, broth microdilution, MRSA KS2; format: cell-based, Staphylococcus aureus; settings: for MIC-fold improvement vs. vancomycin: MRSA KS2, ratio of MIC of vancomycin and MIC of analogue; for MIC: Staphylococcus aureus MRSA KS2, read-out: MIC
Procedure, shortened: as §1

E. faecalis VRE 6 = assay: MIC, broth microdilution, vancomycin-resistant E. faecalis VRE 6 (VanA); format: cell-based, Enterococcus faecalis; settings: for MIC: Enterococcus faecalis VRE 6 (vancomycin-resistant), read-out: MIC; for MIC-fold improvement vs. vancomycin: VRE 6, ratio of MIC of vancomycin and MIC of analogue
Procedure, shortened: as §1

[5] = system: S. aureus VSSA (ATCC 6538); assay: MIC, broth microdilution, vancomycin-sensitive S. aureus (VSSA/MSSA, ATCC 6538); format: cell-based, Staphylococcus aureus; settings: for MIC: Staphylococcus aureus VSSA, read-out: MIC; for MIC-fold improvement vs. vancomycin: VSSA, ratio of MIC of vancomycin and MIC of analogue
Procedure, shortened: as §1

Row | SMILES | MIC (E. faecalis VSE 1) [µM] | MIC-fold improvement vs. vancomycin (E. faecalis VSE 1) | MIC (S. aureus VISA/HIP5827) [µM] | MIC-fold improvement vs. vancomycin (S. aureus VISA/HIP5827) | MIC (E. faecalis VRE 29) [µM] | MIC-fold improvement vs. vancomycin (E. faecalis VRE 29) | IC50 [1] [µM] | MIC-fold improvement vs. vancomycin (MRSA KS1) | MIC (MRSA KS1) [µM] | MIC (S. aureus VRSA) [µM] | MIC-fold improvement vs. vancomycin (S. aureus VRSA) | IC50 [2] [µM] | MIC-fold improvement vs. vancomycin (MRSA KS6) | MIC (MRSA KS6) [µM] | MIC (E. faecalis VRE 53) [µM] | MIC-fold improvement vs. vancomycin (E. faecalis VRE 53) | MIC-fold improvement vs. vancomycin (MRSA KS89) | MIC (MRSA KS89) [µM] | IC50 [3] [µM] | IC50 [4] [µM] | other results
1 | CCCCCc1ccc(NC(=O)CNC(=O)[C@H]2NC(=O)[C@H]3NC(=O)[C@H](NC(=O)[C@@H]4NC(=O)[C@H](CC(N)=O)NC(=O)[C@H](NC(=O)[C@@H](CC(C)C)NC)[C@H](O)c5ccc(c(Cl)c5)Oc5cc4cc(c5O[C@@H]4O[C@H](CO)[C@@H](O)[C@H](O)[C@H]4O[C@H]4C[C@](C)(N)[C@H](O)[C@H](C)O4)Oc4ccc(cc4Cl)[C@H]3O)c3ccc(O)c(c3)-c3c(O)cc(O)cc32)cc1 [Vanc-74] | 0.39 (≈ 0.644 µg/mL) | 4 | 0.78 (≈ 1.29 µg/mL) | 8 | 12.5 (≈ 20.6 µg/mL) | 32 | ≥ 250 | 1 | 0.78 (≈ 1.29 µg/mL) | 1.56 (≈ 2.58 µg/mL) | 64 | 143 | 4 | 0.20 (≈ 0.33 µg/mL) | 6.25 (≈ 10.3 µg/mL) | 64 | 4 | 0.20 (≈ 0.33 µg/mL) | 102 ± 46 | 78 ± 20 | MIC (E. faecalis VRE 37): 6.25 µM (≈ 10.3 µg/mL); MIC-fold improvement vs. vancomycin (E. faecalis VRE 37; VRE 37, ratio of MIC of vancomycin and MIC of analogue): 64; MIC-fold improvement vs. vancomycin (MRSA KS2): 4; MIC (MRSA KS2): 0.20 µM (≈ 0.33 µg/mL); MIC (E. faecalis VRE 6): 1.56 µM (≈ 2.58 µg/mL); MIC-fold improvement vs. vancomycin (E. faecalis VRE 6): 128; MIC [5]: 0.39 µM (≈ 0.644 µg/mL); MIC-fold improvement vs. vancomycin [5]: 2
2 | CN[C@H](CC(C)C)C(=O)N[C@H]1C(=O)N[C@@H](CC(N)=O)C(=O)N[C@H]2C(=O)N[C@H]3C(=O)N[C@H](C(=O)N[C@H](C(=O)NCCNC(=O)/C=C/c4ccc(Cl)cc4)c4cc(O)cc(O)c4-c4cc3ccc4O)[C@H](O)c3ccc(c(Cl)c3)Oc3cc2cc(c3O[C@@H]2O[C@H](CO)[C@@H](O)[C@H](O)[C@H]2O[C@H]2C[C@](C)(N)[C@H](O)[C@H](C)O2)Oc2ccc(cc2Cl)[C@H]1O [Vanc-20] | 0.39 (≈ 0.646 µg/mL) | 4 | 0.39 (≈ 0.646 µg/mL) | 16 | 6.25 (≈ 10.3 µg/mL) | 64 | 138 ± 5 | 2 | 0.39 (≈ 0.646 µg/mL) | 3.13 (≈ 5.18 µg/mL) | 32 | 121 | 2 | 0.39 (≈ 0.646 µg/mL) | 12.5 (≈ 20.7 µg/mL) | 32 | 2 | 0.39 (≈ 0.646 µg/mL) | 80 ± 3 | 146 ± 24 | MIC (E. faecalis VRE 37): 12.5 µM (≈ 20.7 µg/mL); MIC-fold improvement vs. vancomycin (MRSA KS2): 4; MIC (MRSA KS2): 0.20 µM (≈ 0.331 µg/mL); MIC (E. faecalis VRE 6): 1.56 µM (≈ 2.58 µg/mL); MIC-fold improvement vs. vancomycin (E. faecalis VRE 6): 128; MIC [5]: 0.39 µM (≈ 0.646 µg/mL); MIC-fold improvement vs. vancomycin [5]: 2
